Source: patent US6252094A (The Scripps Research Institute, priority 1999, dated 2001)
Values belong to the compound of their own block, whether it stands above or below them.

Tests used:
[1] = tested on: albumin; conditions: sera; cited from earlier work
[2] = background statement; cited from earlier work
[3] = tested on: tubulin; conditions: background; cited from earlier work
[4] = tested on: tubulin; test: Microtubule polymerization-depolymerization measurements (turbidity at 340 nm); format: biochemical; conditions: for suppression of calcium chloride promoted depolymerization: 10^-6 M drug, 1.0 mg/mL tubulin, 0.25 mM CaCl2, 37° C.
Method: Tubulin polymerization-depolymerization measurements are illustrate in FIG. 3. Negative controls are shown with triangles; positive taxol controls are shown with diamonds; and taxol-2'-MPT, i.e., compound 2 is shown with dots.
More particularly, measurement were performed in 96 well plates at 37° C. following the protocol of R. Merlock and W. Wrasidlo (Analytical Biochemistry 1993, in press). Calcium chloride addition is indicated by the arrow. In each case, 1.0 mM GTP was used to promote the initial polymerization of tubulin. Negative control employed tubulin (1.0 mg/mL) alone, CaCl2 (0,25 mM) added after 20 minutes. Positive taxol control employed tubulin (1.0 mg/mL) with taxol (10^-6 M) and CaCl2 (0.25 mM) added after 20 minutes. The experimental taxol-2'-MPTemployed tubulin (1.0 mg/mL) with taxol-2'-MPT (10^-6) and CaCl2 (0.25 mM) added after 20 minutes. Turbidity was measured as optical density at 340 nm using a microplate reader (Molecular Devices Thermomax).

[5] = tested on: metastatic melanoma; test: Cytotoxicity (XTT, 72 hours), metastatic melanoma
[6] = Octanol/water partition coefficient by HPLC
Method: (§1) The solubility and partition coefficient data for 2 and taxol were determined using an HPLC method.
(§2) Solubility was found by forming a solution in water with the aid of sonication for five minutes, centrifugation of the samples, and injection of the supernatant. The values reported were normalized using calibration curves constructed for both compounds by preparing known concentrations in the range 1×10^-6 to 1×10^-3 M in methylene chloride and subjecting to HPLC analysis under the same conditions. […] Partition coefficients were determined by dissolving the compound in the organic phase, shaking the resulting solution with water for ten minutes, and analyzing each phase by HPLC as above.

[7] = tested on: cervical carcinoma; test: Cytotoxicity (XTT, 72 hours), cervical carcinoma
[8] = tested on: human leukemia; test: Cytotoxicity (XTT, 72 hours), human leukemia
[9] = tested on: serum protein; test: Displacement of MPT group by serum protein
Description: (§3) However, the release of taxol from taxol-2'-MPT can also be catalyzed by serum protein and by proteins having nucleophilic groups. […] Dialysis of the protein:taxol intermediate indicates a dissociation period of hours or days. Displacement of the MPT group by serum proteins seems to be specific for such serum proteins. […] The precise nature of the bonding between the protein and taxol has not been characterized. Scheme 2 illustrates alternative pathways for MPT release.

[10] = Stability of taxol-2'-MPT by HPLC (solid state, aqueous media); format: physicochemical
Method: (§4) Due to a difference in retention time using our standard HPLC conditions (see FIG. 1) and differing ultraviolet absorption maxima (1280 /1254 =1.6 for 2 and 0.3 for 1), the stability of 2 was easily assayed by HPLC (FIG. 1). […] In phosphate buffered saline (PBS) or ammonium acetate--phosphate buffer systems of pH 6.0 to 7.3, 2 is stable at 25° C. for over 21 days. Taxol-2'-MPT (2) is, however, unstable in 5% HCl (pH 1.1) and brine.

[11] = Self-assembly: optical clarity, OD at 340 nm, TEM; format: physicochemical; conditions: for morphology of self-assembled structures in buffered solutions: 1 mM in 100 mM PBS
Description: Transmission electron microscopy (TEM) confirmed the presence of supramolecular structures in these solutions. […] It is likely that the long term stability of these solutions is due, at least in part, to stabilization provided by this structured environment.

[12] = tested on: A549 non-small cell lung adenocarcinoma; test: Efficacy in lung tumor xenograft nude mouse model
[13] = Stability/kinetics of taxol release from taxol-2'-MPT in plasma; format: in vitro ADME, human
Method: as §4
(§5) Under these conditions 20% of total is recovered. More particularly, Taxol-2'-MPT (2) was dissolved in the aqueous system with the aid of sonication for five minutes. Aliquots were then removed at the times shown and partitioned into methylene chloride to quench the reaction. Samples were then analyzed using a Waters Maxima HPLC instrument equipped with an autoinjector (3.9×300 mm C18 column equipped with a precolumn. The flow rate was 1.5 mL/minute. The eluent gradient A-B extended over 30 minutes. "A" was 80% 80 mM ammonium acetate, pH 6.0. "B" was 100% methanol. An ultraviolet diode array detector was employed. The ratio of compound 2 (Rf 16.2 min.) to taxol (compound 1, Rf 16.8 min.) remaining was determined from the relative areas of the peaks after normalization with previously determined calibration curves.

[14] = tested on: immunoglobulins; test: Displacement of MPT group by immunoglobulins
Description: as §3

[15] = tested on: non-serum proteins; test: Displacement of MPT group by non-serum proteins
Description: as §3

[16] = Solubility in water by HPLC (sonication, centrifugation, injection of supernatant); format: physicochemical
Method: as §1, §2

[17] = tested on: serum albumen; test: Displacement of MPT group by serum albumin
Description: as §3

[18] = Kinetics of taxol release from taxol-2'-MPT in aqueous solutions at 25° C.; format: physicochemical; conditions: sterile water, pH 6.2 PBS or 5% dextrose, over 11 minutes
Method: as §5

[19] = water, 5% dextrose, 1.5% saline

Structure (SMILES): CC(=O)O[C@H]1C(=O)[C@@]2(C)[C@H]([C@H](OC(=O)c3ccccc3)[C@]3(O)C[C@H](OC(=O)[C@H](O)[C@@H](NC(=O)c4ccccc4)c4ccccc4)C(C)=C1C3(C)C)[C@]1(OC(C)=O)CO[C@@H]1C[C@@H]2O [taxol, reference compound]
taxol binding to albumin [1]: ca. 85%
water solubility [2]: less than 1.5×10^-6 molar
effect of taxol binding on tubulin [3]: prevents its polymerization and the formation of microtubules
suppression of calcium chloride promoted depolymerization [4]: suppressed by taxol
microtubule stabilization by taxol recovered from human plasma treated with 2 ([4]; taxol recovered from plasma): exhibited the expected microtubule stabilization
cytotoxicity level, metastatic melanoma [5]: Extremely high
Partition Coefficient [octanol]/[water] [6]: > 10000
cytotoxicity level, cervical carcinoma [7]: Extremely high
cytotoxicity level, human leukemia [8]: Extremely high

stability in 5% HCl and brine ([10]; 5% HCl (pH 1.1) and brine): unstable
stability period in buffer ([10]; PBS or ammonium acetate-phosphate buffer, pH 6.0 to 7.3, 25° C.): over 21 days
stability in aqueous media (discussion) ([10]; aqueous media, physiological pH and ion strength): essentially completely stable
stability in most aqueous media (discussion) ([10]; most aqueous media): remarkably stable
onset of slow degradation [10, 19]: > 4 days
stability in water, 5% dextrose, and 1.5% saline [10, 19]: stable for several days
morphology of self-assembled structures in unbuffered solutions ([11]; 1 mM in H2O, TEM): self-assembled spherical nanostructures
diameter of fibrillar aggregates ([11]; TEM): ca. 80 Å
helical twist of aggregates ([11]; TEM): about 7
length of fibrillar aggregates ([11]; TEM): up to 800 Å
concentration above which haze is exhibited ([11]; buffered solutions): greater than 1×10^-3 M
critical concentration (exponential increase in OD at 340 nm) ([11]; buffered solutions, 340 nm): 400 µM
diameter of spherical structures ([11]; freshly sonicated solutions, TEM): about 50 Å
optical appearance of water solutions ([11]; water, all concentrations examined): optically clear
conversion to taxol in vivo ([12]; inferred from the xenograft results): converted rapidly to taxol in vivo
degradation in human plasma ([13]; human plasma, 37° C.): breaks down rapidly
recovery ([13]; human, plasma, methylene chloride extraction, read-out: total recovered from plasma): 20%
total recovered from plasma ([13]; plasma, methylene chloride extraction): 20%
time to complete conversion of 2 into taxol in plasma ([13]; plasma, methylene chloride extraction, 25° C. per FIG. 1): ≤ 10 min
discharge of taxol in sera ([13]; sera): rapidly discharges taxol in sera
effectiveness in displacing MPT group, immunoglobulins [14]: particularly effective
MPT-displacing activity of non-serum proteins [15]: seemed to lack this activity
degradation during solubility and partition studies [16]: No degradation
solubility ([16]; water, HPLC, table value): 1700 µM
effectiveness in displacing MPT group, serum albumin [17]: particularly effective
logP [6]: 1.7
taxol release in aqueous media [18]: no taxol release is observed
Structure (SMILES): CC(=O)O[C@H]1C(=O)[C@@]2(C)[C@H]([C@H](OC(=O)c3ccccc3)[C@]3(O)C[C@H](OC(=O)[C@H](Oc4cccc[n+]4C)[C@@H](NC(=O)c4ccccc4)c4ccccc4)C(C)=C1C3(C)C)[C@]1(OC(C)=O)CO[C@@H]1C[C@@H]2O [taxol-2'-MPT]
displacement of MPT group on contact with serum protein [9]: observed to displace its MPT group and form a protein:taxol intermediate
degradation products detected ([10]; HPLC): taxol and the pyridinone that results from hydrolysis of pyridinium salts
morphology of self-assembled structures in buffered solutions ([11]; TEM): self-assembled helical fibrous nanostructures
morphology of self-assembled structures in buffered solutions ([11]; TEM, listed as 2): Uniform aggregates of fibrillar structure
control of tumor growth ([12]; I.P. day 1, 3, 7, taxol 18.0 mg/kg, taxol-2'-MPT 23.9 mg/kg, preliminary data): at least comparable to that of taxol
suppression of calcium chloride promoted depolymerization [4]: not by taxol-2'-MPT
microtubule polymerization-depolymerization ([4]; GTP-saline controls and taxol as comparators): very similar to GTP-saline controls and drastically different from taxol
effect on tubulin-microtubule equilibria ([4]; buffered aqueous assay): does not affect the tubulin-microtubule equilibria
binding to tubulin ([4]; inferred from the polymerization assay): does not appear to bind to tubulin in the manner of taxol
solubility compared with clinically relevant dosages (3 to 30 mM) ([16]; range of aqueous systems): higher than the clinically relevant dosages
water solubility compared with parent taxol ([16]; relative to taxol): significantly more soluble in water than the parent taxol
cytotoxicity level, metastatic melanoma [5]: Extremely high
cytotoxicity level, cervical carcinoma [7]: Extremely high
cytotoxicity level, human leukemia [8]: Extremely high
